Test results taken from patent US20150329537A2, “CDK9 INHIBITORS IN THE TREATMENT OF MIDLINE CARCINOMA” (LEADDISCOVERY CENTER GMBH, priority 2011, published 2015).

How the values were obtained:
HCC2429 cells = test: Proliferation / cell viability assay (Cell Titer Glo); type: cell-based; conditions: FIG. 1; for effect on proliferation of HCC2429 cells (in words): dose response experiments
Experimental: Proliferation assays were performed as described below under materials and methods. […] (Cpd B1 and Ro-3306) were applied at concentrations between 30 and 0.0137 μM. After 72 h incubation with compounds ATP content/proliferation was determined employing CTG (Promega). Relative proliferation values (compared to vehicle control) were used to calculate IC50 values (Excel fit; algorithm #205). IC50s of the respective compound (Y-axis; logarithmic scale) on proliferation of various cell lines (X-axis) are depicted in black bars. White bars indicate that an IC50 could not be determined due to too low activity and therefore was higher than the highest applied concentration in the assays (30 μM). IC50s of compounds on CDK9 inhibitor sensitive cell line HCC2429 are presented in grey bars.
Cell lines were maintained in RPMI 1640 cell culture medium+glutamine (PAN Biotech GmbH, Aidenbach, Germany; order no. P04-22100; P04-05500) supplemented with 10% fetal calf serum “Gold” (PAA Laboratories GmbH, Pasching, Austria; order no. A15-151) and grown in a humidified atmosphere at 37° C., 5% C02. As a first step, an optimal cell density for each cell line was determined to guarantee linearity. For viability assays with compounds, cells were then seeded at a density of 200 to 1000 per well in 25 μl in 384-well plates (Greiner Bio-One, Frickenhausen, Germany; order no. 781080). After overnight incubation at 37° C./5% CO2, 25 nl or 75 nl compounds were added to each sample well by using BIOMEK FX^P Laboratory Automation Workstation (Beckman Coulter, USA). Wells with cells and 0.1% or 0.3% DMSO in culture medium were used as positive controls, wells with cells and 10 μM staurosporine (Selleck Chemicals, Huston, USA) in culture medium were used as negative controls. Upon incubation with compounds for 72 h at 37° C./5% CO2 25 μl Cell Titer Glo reagent (Promega, Madison, USA, order no. G7573; 1:2 diluted with cell culture medium) was added to each well to determine cell viability. […] Luminescence was measured by Envision Plate Reader (Perkin Elmer, USA). […]

CDK9/CycT = target: T1, CDK9/CycT (Homo sapiens, UniProt P50750); test: Radiometric protein kinase assay (33PanQinase Activity Assay); type: biochemical; conditions: 10 μM compound, compared to vehicle control, 23 different kinases, FIG. 3
T1 construct: purchased ProQinase
T1 sequence (P50750 whole entry): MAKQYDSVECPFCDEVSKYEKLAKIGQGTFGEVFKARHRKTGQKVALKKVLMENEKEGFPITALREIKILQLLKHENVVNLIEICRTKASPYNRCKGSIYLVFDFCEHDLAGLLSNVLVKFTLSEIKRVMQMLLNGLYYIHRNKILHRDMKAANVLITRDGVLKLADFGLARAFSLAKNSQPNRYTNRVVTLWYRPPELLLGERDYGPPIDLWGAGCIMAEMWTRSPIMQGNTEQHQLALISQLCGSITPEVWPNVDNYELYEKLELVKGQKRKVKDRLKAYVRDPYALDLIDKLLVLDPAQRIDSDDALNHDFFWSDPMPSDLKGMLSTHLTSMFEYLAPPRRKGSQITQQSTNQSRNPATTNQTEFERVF
T1 sequence (O60563 whole entry partner): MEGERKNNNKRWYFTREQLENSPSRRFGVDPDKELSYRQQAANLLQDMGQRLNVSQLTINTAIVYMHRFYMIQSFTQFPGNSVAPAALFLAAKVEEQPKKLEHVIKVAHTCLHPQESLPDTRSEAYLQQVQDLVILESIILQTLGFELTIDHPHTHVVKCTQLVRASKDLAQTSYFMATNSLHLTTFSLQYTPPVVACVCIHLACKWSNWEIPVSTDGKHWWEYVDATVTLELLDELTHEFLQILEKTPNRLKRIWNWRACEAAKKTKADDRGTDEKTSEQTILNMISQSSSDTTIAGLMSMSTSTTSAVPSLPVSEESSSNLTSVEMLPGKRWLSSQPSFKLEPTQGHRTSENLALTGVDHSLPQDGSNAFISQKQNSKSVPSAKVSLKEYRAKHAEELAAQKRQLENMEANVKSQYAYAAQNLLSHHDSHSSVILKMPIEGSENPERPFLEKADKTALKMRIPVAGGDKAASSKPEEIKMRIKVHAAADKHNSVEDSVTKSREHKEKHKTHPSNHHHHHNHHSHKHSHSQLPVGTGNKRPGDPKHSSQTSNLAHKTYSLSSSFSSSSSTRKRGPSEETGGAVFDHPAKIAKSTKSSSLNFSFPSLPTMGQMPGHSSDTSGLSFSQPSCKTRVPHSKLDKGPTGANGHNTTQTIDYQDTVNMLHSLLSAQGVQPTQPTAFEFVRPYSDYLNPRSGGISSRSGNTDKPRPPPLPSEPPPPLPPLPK
Experimental: A similar experimental procedure is performed when the resulting activity within ^33PanQinase® assay is done. In advance buffers are prepared but in this case the pipetting sequence is first ATP solution diluted with assay buffer, DMSO or compound solution. The reaction (1 h at 30° C.) is started by addition of a substrate-kinase mix. During the incubation the kinase phosphorylates the substrate (different for each kinase). Due to the fact that the ATP solution contains ^33P labelled ATP the substrate proteins are labeled with ^33P. The reaction is stopped by addition of excess H3PO4. If the reaction is performed in plates binding substrate proteins, said plates are washed to reduce unspecific signals (mainly not used ATP). The incorporation of ^33P into substarte proteins is a direct measure of activity of the respective kinase. Therefore, the incorporated radioactivity is detected by scintillation counting. Data is evaluated, processed and analyzed as described for the LANCE assays.
A radiometric protein kinase assay (33PanQinase® Activity Assay) was used for measuring the kinase activity of the […] protein kinases. […]
The reaction cocktails were incubated at 30° C. for 60 minutes. […] Incorporation of 33Pi (counting of “cpm”) was determined with a microplate scintillation counter (Microbeta, Wallac).

[1] = system: Brd4-Nut mutated cell lines (HCC2429, TY-82, 690100, 143100); test: Proliferation assay on Brd4-Nut mutated versus wild type cell lines; type: cell-based; conditions: mutated: HCC2429, TY-82, 690100, 143100; wild type: Hela, HCC366, H460, HCC1143, hPBMCs; FIG. 4
Experimental: The proliferation results are presented as IC50 in μM. First, the anti-proliferative effect of CDK9 inhibitors is much more pronounced on BrdNut mutated cell lines (=sensitive cell lines).
Cell lines were maintained in RPMI 1640 cell culture medium+glutamine (PAN Biotech GmbH, Aidenbach, Germany; order no. P04-22100; P04-05500) supplemented with 10% fetal calf serum “Gold” (PAA Laboratories GmbH, Pasching, Austria; order no. A15-151) and grown in a humidified atmosphere at 37° C., 5% C02. As a first step, an optimal cell density for each cell line was determined to guarantee linearity. For viability assays with compounds, cells were then seeded at a density of 200 to 1000 per well in 25 μl in 384-well plates (Greiner Bio-One, Frickenhausen, Germany; order no. 781080). After overnight incubation at 37° C./5% CO2, 25 nl or 75 nl compounds were added to each sample well by using BIOMEK FX^P Laboratory Automation Workstation (Beckman Coulter, USA). Wells with cells and 0.1% or 0.3% DMSO in culture medium were used as positive controls, wells with cells and 10 μM staurosporine (Selleck Chemicals, Huston, USA) in culture medium were used as negative controls. […] Luminescence was measured by Envision Plate Reader (Perkin Elmer, USA). […]

COc1ccccc1-c1ncnc(Nc2cccc(CS(N)(=O)=O)c2)n1 [Cpd B1, 3-[(4-(2-Methoxyphenyl)-1,3,5-triazin-2-yl)amino] benzenemethanesulfonamide]
effect on proliferation of HCC2429 cells (in words) (HCC2429 cells): potently affected proliferation of HCC2429 cells | inhibition of CDK9 kinase activity, residual activity (in words) (CDK9/CycT): inhibits only CDK9 with high potency

COc1ccccc1-c1cc(Nc2cccc(CS(N)(=O)=O)c2)ncn1 [1073485-20-7P, 3-[[6-(2-methoxyphenyl)-4-pyrimidinyl]amino]-Benzenemethanesulfonamide]
proliferation inhibition in mutated, sensitive cell lines compared with wild type cell lines (in words) [1]: much more potent in mutated, sensitive cell lines

O=C1NC(=NCc2cccs2)S/C1=C\c1ccc2ncccc2c1 [Ro-3306]
IC50 (HCC2429 cells; 72 h incubation, ATP content/proliferation by CTG, 30 to 0.0137 μM): > 10 µM | effect on proliferation of HCC2429 cells (in words) (HCC2429 cells): did not show comparable effects
